Test results from paper PMC8533149 (Biomolecules, 2021).

system: HIV-1 LTR-III G-quadruplex (FAM/TAMRA-labeled LTR-III); test: FRET melting assay, LTR-III G4; assay type: binding; conditions: Table S1 primary screening, ligand:ODN 50:1, singlicate
Procedure: To evaluate stabilizing properties of the ligands in a complex with oligodeoxyribonucleotides (ODNs) melting with fluorescence registration was used. ODN (0.5 μM) (Table 1), labeled with 6-carboxyfluorescein (FAM) and 6-carboxytetramethylrhodamine (TAMRA) at the 5′- and 3′-end, respectively, were folded in lithium cacodylate buffer (10 mM, pH 7.4) with 100 mM KCl by heating at 95 °C for 5 min and gradually cooling to r.t. GFP chromophore analogs (5 mM solution in DMSO) were diluted with the same buffer to the final concentration of 25 μM and mixed with an equal volume of 0.5 μM ODN solution resulting in a molar ratio of 50:1 (total volume was 50 μL). For the titration experiments molar ratios of 20:1 and 2:1 were used. Samples were analyzed using DTprime qPCR system (DNA-Technology LLC, Moscow, Russia). Fluorescence was registered by detection of FAM emission at 520 nm upon excitation at 495 nm in the temperature range of 30–95 °C with 1 °C/min gradient. Tm was determined using the instrument software and ΔTm was calculated relative to ODN Tm in a buffer solution containing 0.25% (v/v) DMSO. The primary and secondary screening were carried out in singlicate and triplicate, respectively.

| Structure (SMILES) | LTR-III ΔTm |
| --- | --- |
| CN1C(=O)C(=Cc2ccc(O)cc2)N=C1C=Cc1ccc(O)c([N+](=O)[O-])c1 [ccA 11] | 0.1 °C |
| CNC(=O)C(N)C(O)c1ccc(OCc2ccccc2)cc1 (centres unmarked) [X 27] | -0.1 °C |
| CN1C=NC(=Cc2ccc(O[Si](c3ccccc3)(c3ccccc3)C(C)(C)C)cc2)C1=O [N 624] | -0.5 °C |
| CC1=NC(=Cc2ccc3cc(N4CCOCC4)ccc3c2)C(=O)N1C [X 002] | -0.6 °C |
| CC(=O)C1=NC(=Cc2ccc(O)cc2)C(=O)N1C [X 18] | 0.6 °C |
| CC1=NC(=Cc2cc(F)c(O)c(F)c2)C(=O)N1CCCC(=O)O [M 894] | -0.3 °C |
| CCC1=NC(=Cc2c[nH]c3cccc(C)c23)C(=O)N1C [M 1978] | -0.1 °C |
| CCNc1ccc2cc(Br)ccc2c1 [N 576.2] | 0 °C |
| CN1C(=O)C(=Cc2ccc(OC(=O)c3ccccc3)cc2)N=C1C=C(OC(=O)c1ccccc1)c1ccccc1 [M 228] | -0.8 °C |
| CC1=NC(=Cc2ccccc2)C(=O)N1CC(N)=O [SA 152] | -0.3 °C |
| CN1C(=O)C(=Cc2ccc(O)cc2)N=C1c1ccccc1 [M 750] | -0.2 °C |
| CN1C(=O)C(=Cc2ccc(O)cc2)N=C1C=Cc1ccncc1 [ccA 9] | 0.3 °C |
| CN1C(=O)CN2C(=O)C(=Cc3ccc(O)cc3)N=C2C1=O [SA 108] | -0.1 °C |
| O=C1NC(=S)SC1=Cc1ccc(O)cc1Br [SAI 122] | 0.1 °C |
| CN1C(=O)C(=Cc2ccc(O)cc2)N=C1C=Cc1cc(Br)c(O)c(Br)c1 [ccA 12] | 0.2 °C |
| CCOC(=O)CN1C(=O)C(=Cc2ccc(Br)cc2)N=C1c1ccccc1 [X 6] | -0.1 °C |
| COc1cc(O)ccc1C=C1N=C(C=Cc2ccccn2)N(C)C1=O [M 2766] | 1.1 °C |
| CCN(CC)c1ccc(C=C2N=C(C)N(CCCCO)C2=O)cc1 [N 182] | -0.1 °C |
| COc1ccc(C=C2N=C(C(C)(C)C)N(C)C2=O)cc1 [M 440] | -0.1 °C |
| CCN(CC)C(=O)Sc1ccc(C=C2N=C(c3ccccc3)N(C)C2=O)cc1 [M 2075] | 0.3 °C |
| CC1=NC(=Cc2ccncc2)C(=O)N1C [M 1998] | -0.4 °C |
| CN1C(=O)C(=Cc2ccc(O)cc2)N=C1C=Cc1cccc(C(F)(F)F)c1 [N 873] | 0.4 °C |
| COc1cc(O)ccc1/C=C1N=C(/C=C/c2ccccc2)N(C)C\1=O [MID 145] | 0.9 °C |

| Structure (SMILES) | LTR-III ΔTm |
| --- | --- |
| CN1C(=O)C(=Cc2ccc(N(C)C)cc2)N=C1C=Cc1cc(Br)c(O)c(Br)c1 [M 2368c] | 0 °C |
| COc1ccc(C=C2N=C(C)N(Cc3ccccc3)C2=O)cc1 [ZS 128] | -0.3 °C |
| CCC(=O)NC(=Cc1c[nH]c2ccccc12)C(=O)NC [SV 13] | -0.1 °C |
| CCN(CC)c1ccc(C=C2N=C(C=Cc3cc(Br)c(O)c(Br)c3)N(C)C2=O)cc1 [M 2368d] | 0.1 °C |
| COc1c(O)ccc(C=C2N=C(C)N(C)C2=O)c1OC [N 1027.1] | -0.1 °C |
| CN1C(=O)C(=Cc2ccc(O)cc2)N=C1Cc1ccccc1 [GFP-2-Bn] | -1.5 °C |
| CCCCN(CCCC)c1ccc(C=C2N=C(C)N(C)C2=O)cc1 [SA 33] | 0.2 °C |
| COc1cc(O)ccc1C=C1N=C2C=CC=CN2C1=O [N 1123] | 0.3 °C |
| CC1=NC(=Cc2ccc(F)cc2)C(=O)N1C [SV 50.10] | -0.2 °C |
| CC(=O)Oc1ccc(C=C2N=C(C=C(OC(=O)c3ccc(C)cc3)c3ccc(C)cc3)N(C)C2=O)cc1 [M 202] | -0.6 °C |
| COc1ccc(C=CC2=NC(=Cc3ccc([N+](=O)[O-])cc3)C(=O)N2C)cc1 [AI 119] | 1.4 °C |
| CN1C(=O)C(=Cc2ccc(O)cc2)N=C1C=Cc1ccc(Br)cc1 [ccA 7] | 0.8 °C |
| CC1=NC(=Cc2cc(Cl)c(O)c(Cl)c2)C(=O)N1C [N 892] | -1 °C |
| CCN(CC)C(=S)Oc1ccc(C=C2N=C(C)N(C)C2=O)cc1 [M 2081] | 0.1 °C |
| CC1=NC(=Cc2cccc(O)c2)C(=O)N1C [M 1300] | 0.2 °C |
| CNC(=O)c1onc(C(=O)OC)c1-c1ccc(OC)cc1 [SA 561A] | -0.3 °C |
| COc1ccccc1C=CC1=NC(=Cc2ccc(O)cc2)C(=O)N1C [ccA 20] | 0.4 °C |
| C#CCN1C(=O)C(=Cc2ccc(O)cc2)N=C1C [X 12] | 0.2 °C |
| O=C1NC(c2ccccc2)=NC1=Cc1ccc(O)cc1 [X 24] | -0.5 °C |
| CC1=NC(=C(N)c2ccc(Cl)cc2)C(=O)N1C [ZS 178] | -0.3 °C |
| CCN(CC)c1ccc(C=C2N=C(C)N(C)C2=O)cc1 [M 1661] | 0.4 °C |
| CN1C(=O)C(=Cc2ccc(O)cc2)N=C1C=Cc1ccc(N(C)C)cc1 [ccA 22] | 0.3 °C |
| CC1=NC(=Cc2cccc([N+](=O)[O-])c2)C(=O)N1CC(N)=O [SA 128] | 0.1 °C |

| Structure (SMILES) | LTR-III ΔTm |
| --- | --- |
| CCC1=NC(=Cc2ccc(O[Si](c3ccccc3)(c3ccccc3)C(C)(C)C)cc2)C(=O)N1C [M 1557] | -0.1 °C |
| CN1C(=O)C(=Cc2ccc(O)cc2)N=C1CCCCCNC(=O)OC(C)(C)C [X 21] | -0.1 °C |
| CNC(=O)C(=Cc1ccccc1)N=[N+]=[N-] [N 830b] | -0.2 °C |
| COc1ccc(C=C2N=C(SC)N(C)C2=O)cc1 [VZ 1] | 0.4 °C |
| CC1=NC(=Cc2ccc(O)c(O)c2)C(=O)N1C [M 1583.7] | -1.4 °C |
| COc1ccc(C=CC2=NC(=Cc3ccnc4ccccc34)C(=O)N2C)cc1 [AL 125] | 1.7 °C |
| CC1=NC(=Cc2ccc(Br)cc2)C(=O)N1Cc1ccccc1 [X 9] | -0.6 °C |
| CC1=NC(=Cc2ccc(O)c(C(=O)O)c2)C(=O)N1C [SV 51.1] | -0.4 °C |
| CC1=NC(=Cc2cccs2)C(=O)N1C [N 1021] | 0.3 °C |
| CCC(=O)NC(=Cc1c[nH]c2cccc(C)c12)C(=O)NC [M 1979] | -0.1 °C |
| CC1=NC(=Cc2ccccc2O)C(=O)N1C [M 1583.4] | 0.2 °C |
| CNC(=O)c1onc(C(=O)OC(C)C)c1-c1cccs1 [SA 330A] | -0.5 °C |
| COc1ccc(C=CC2=NC(=Cc3ccncc3)C(=O)N2C)cc1 [N 813] | 0.6 °C |
| CC(C)OC(=O)c1noc(=O)c(O)c1-c1ccc(C(C)C)cc1 [SA 300D] | -1.2 °C |
| COc1ccc(C=C2N=C(C=C(O)c3ccc(Br)cc3)N(C)C2=O)cc1 [N 537] | -0.3 °C |
| Cc1cc(/C=C2\SC(=S)NC2=O)ccc1O [HMBR] | -0.6 °C |
| CC1=NC(=CC=Cc2ccc(O)cc2)C(=O)N1C [M 1378] | -0.7 °C |
| C=CCc1cc(C=C2N=C(C)N(C)C2=O)ccc1O [X 11] | -0.2 °C |
| CCOC(=O)CN1C(=O)C(=Cc2ccc(O)c(F)c2)N=C1C [M 2286.1] | -0.3 °C |
| CN1C(=O)C(=Cc2ccc(O)cc2)N=C1C=Cc1cccs1 [ccA 19] | -0.1 °C |
| O=C1NC(=S)SC1=Cc1ccc(O)c(Cl)c1 [SAI 125] | 0.6 °C |
| O=C1NC(/C=C/c2ccncc2)=NC/1=C\c1cc(F)c(O)c(F)c1 [N 863] | 0 °C |
| CC1=NC(=Cc2ccnc3ccccc23)C(=O)N1C [SA 471] | -0.1 °C |

| Structure (SMILES) | LTR-III ΔTm |
| --- | --- |
| CCCC1=NC(=C(N)c2ccccc2)C(=O)N1 [M 1862] | -1.1 °C |
| COc1cc(O)ccc1C=C1N=C(C=C(C#N)c2ccccc2)N(C)C1=O [MID 151] | 0.2 °C |
| COc1ccc(C=C2N=CN(C)C2=O)cc1 [N 599.2] | -0.7 °C |
| COc1cc(O)ccc1/C=C1\N=C(C(=O)c2ccccc2)N(C)C1=O [N 1139] | 0.6 °C |
| COc1ccc2cc(CO)ccc2c1 [N 49] | -0.1 °C |
| COc1ccc(NC(=O)c2onc(C(=O)OC(C)C)c2-c2ccc(OC)cc2)cc1 [AL 45] | 0.2 °C |
| CCN(CC)c1ccc(C=C2N=C(C)N(C)C2=O)cc1 [GC 04] | 0 °C |
| COc1ccc(-c2c(C(=O)OC(C)C)noc2C(=O)N2CCCC2)cc1 [SA 309] | -0.5 °C |
| CC1=NC(=Cc2ccc(O)c(F)c2)C(=O)N1C [M 556] | -0.2 °C |
| O=C1NC(=S)SC1=Cc1ccc(O)c(C(=O)O)c1 [SAI 120] | 0.6 °C |
| CC(C)OC(=O)c1noc(C(=O)NCc2ccccc2)c1-c1cccc(C(F)(F)F)c1 [SA 344B] | -0.7 °C |
| CC1=NC(=Cc2ccc3[nH]c(C)c(C)c3c2)C(=O)N1C [N 792] | 0.2 °C |
| CCn1nnc2c(Nc3ccccc3)cccc2c1=O [M 958A] | -0.7 °C |
| CC1=NC(=Cc2ccc(OCc3ccccc3)cc2)C(=O)N1C [X 7] | 0 °C |
| CC(C)CCC1=NC(=Cc2ccc(O)cc2)C(=O)N1 [M 803] | -0.1 °C |
| CON1C(=O)C=NC(=Cc2ccc(O)cc2)C1=O [M 577] | 0.1 °C |
| CC1=NC(=C(N)c2ccc(Br)cc2)C(=O)N1C [ZS 190] | -0.5 °C |
| CN1C(=O)C(=Cc2ccc(O)cc2O)N=C1C=Cc1cc(Br)c(O)c(Br)c1 [N 855] | 0.4 °C |
| CCN1C(=O)C(=CC=Cc2ccc(O)cc2)N=C1C [M 1379.2] | -0.2 °C |
| CCC(=O)n1cc(C=C2N=C(CC)OC2=O)c2c(C)cccc21 [M 1977] | 0 °C |
